Experimental data from publication PMC7925357 (European journal of medicinal chemistry, 2020).
Like-named read-outs stand apart in the source and are kept apart here.

Experiments:
[1] = biological target: T1, hM3Dq (Homo sapiens, UniProt P20309, A239G/Y149C); conditions: read-out: hM3Dq EC50; DREADD agonist; cited from earlier work
[2] = tested on: hM3; conditions: read-out: hM3 EC50; selectivity versus native hM3; cited from earlier work
[3] = biological target: T1, hM3Dq; assay: PET imaging with [18F]7b in transgenic mice expressing hM3Dq; type: in vivo, mouse
[4] = biological target: T1, hM3Dq; assay: [3H]CLZ competition binding, membranes of HEK293 cells transfected with hM3Dq
[5] = biological target: T2, hM4Di (Homo sapiens, UniProt P08173, A203G/Y113C); assay: [3H]CLZ competition binding, membranes of HEK293 cells transfected with hM4Di
T2 sequence (P08173 1-479 Y113C/A203G): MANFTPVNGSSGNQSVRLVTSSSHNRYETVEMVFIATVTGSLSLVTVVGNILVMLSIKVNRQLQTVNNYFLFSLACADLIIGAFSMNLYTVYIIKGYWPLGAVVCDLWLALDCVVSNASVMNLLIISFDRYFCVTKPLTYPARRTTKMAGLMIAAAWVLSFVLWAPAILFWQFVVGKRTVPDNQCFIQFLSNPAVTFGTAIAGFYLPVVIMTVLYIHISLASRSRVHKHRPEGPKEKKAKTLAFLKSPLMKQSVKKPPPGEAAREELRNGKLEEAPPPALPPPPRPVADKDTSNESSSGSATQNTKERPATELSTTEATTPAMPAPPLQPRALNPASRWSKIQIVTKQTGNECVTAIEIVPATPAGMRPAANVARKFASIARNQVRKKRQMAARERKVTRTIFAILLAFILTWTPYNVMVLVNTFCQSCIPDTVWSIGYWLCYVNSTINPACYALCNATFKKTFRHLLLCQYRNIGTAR

[6] = biological target: T2, hM4Di; conditions: read-out: Ki, nM hM4Di; printed without SD; cited from earlier work
[7] = biological target: T1, hM3Dq; conditions: read-out: Ki, nM hM3Dq; printed without SD; cited from earlier work
[8] = biological target: T1, hM3Dq; conditions: hM3Dq Tg mice; cited from earlier work
[9] = tested on: wild-type mouse brain; assay: PET imaging with [18F]7b in wild-type mouse; conditions: wild-type mouse lacking DREADD expression
[10] = at 50–60 min after injection, transgenic hM3Dq mice
[11] = baseline, cerebellum as reference tissue

T1 sequence (P20309 whole entry Y149C/A239G): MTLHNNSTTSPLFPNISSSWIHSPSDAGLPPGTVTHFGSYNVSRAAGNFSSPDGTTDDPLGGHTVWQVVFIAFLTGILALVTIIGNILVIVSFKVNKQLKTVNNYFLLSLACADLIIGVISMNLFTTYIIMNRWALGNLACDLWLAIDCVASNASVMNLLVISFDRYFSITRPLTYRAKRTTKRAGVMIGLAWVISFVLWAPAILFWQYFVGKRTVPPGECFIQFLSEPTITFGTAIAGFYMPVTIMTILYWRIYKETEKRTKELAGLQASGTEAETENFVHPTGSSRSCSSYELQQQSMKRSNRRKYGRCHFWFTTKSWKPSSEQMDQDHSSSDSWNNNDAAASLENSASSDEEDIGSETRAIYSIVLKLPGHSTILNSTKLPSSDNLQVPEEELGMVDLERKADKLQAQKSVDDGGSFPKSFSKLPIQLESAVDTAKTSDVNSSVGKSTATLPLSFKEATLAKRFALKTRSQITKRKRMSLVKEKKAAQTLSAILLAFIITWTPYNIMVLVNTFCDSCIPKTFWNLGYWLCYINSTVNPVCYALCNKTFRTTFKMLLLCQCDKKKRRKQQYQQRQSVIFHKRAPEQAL

CCN1CCN(C2=Nc3cc(Cl)ccc3Nc3ccccc32)CC1 [Compound 1, 8-chloro-11-(4-ethylpiperazin-1-yl)-5H-dibenzo[b,e][1,4]diazepine]
EC50 [1]: 1.3 nM
EC50 [2]: > 30000 nM

CCN1CCN(C2=Nc3cc(Cl)ccc3Nc3c(F)cccc32)CC1 [Compound 7d, 8-Chloro-11-(4-ethylpiperazin-1-yl)-4-fluoro-5H-dibenzo[b,e][1,4]diazepine]
blocking effect on [18F]7b in the cerebellum ([3]; 7d as blocker, dose escalation): insignificant
blocking of [18F]7b binding potential in the cortex versus baseline ([3]; 7d as blocker, dose escalation up to 0.5 mg/kg): significant only at the highest dose of blocker

CCN1CCN(C2=Nc3cc(Cl)ccc3Nc3c(F)cc(F)cc32)CC1 [Compound 7h, 8-Chloro-11-(4-ethylpiperazin-1-yl)-2,4-difluoro-5H-dibenzo[b,e][1,4]diazepine]
Ki [4]: 8.1 ± 0.9 nM
Ki [5]: 18.1 ± 5.4 nM

CN1CCN(C2=Nc3ccccc3Nc3ccccc32)CC1 [DCZ, deschloroclozapine]
Ki [6]: 4.2 nM
Ki [7]: 6.3 nM

[11CH3]N1CCN(C2=Nc3ccccc3Nc3ccccc32)CC1 [[^11C]DCZ, [^11C]deschloroclozapine]
STR/CB ratio value [8]: 2.7

CCN1CCN(C2=Nc3ccccc3Nc3ccc([18F])cc32)CC1 [[^18F]7b, 11-(4-Ethylpiperazin-1-yl)-2-[^18F]fluoro-5H-dibenzo[b,e][1,4]diazepine]
maximum ratio of tissue to cerebellum, cortex [3, 10]: 1.8
maximum ratio of tissue to cerebellum, striatum [3, 10]: 3.0
binding potential BPND, cortex [3, 11]: 0.6
binding potential BPND, striatum [3, 11]: 1.6
highest accumulation of radioactivity in the striatum (SUV) ([3]; baseline, striatum, mean ± SD of 3, transgenic hM3Dq mice): 1.93 ± 0.33 SUV
accumulation of radioactivity in the brain [9]: low accumulation of radioactivity in the brain
